Results reported in patent publication US12590087B2, “Inhibiting USP36” (Valo Health, Inc., priority 2019, dated 2026).

Target: T1, human USP36 (81-461) (Homo sapiens, UniProt Q9P275)
T1 sequence (Q9P275 81-461): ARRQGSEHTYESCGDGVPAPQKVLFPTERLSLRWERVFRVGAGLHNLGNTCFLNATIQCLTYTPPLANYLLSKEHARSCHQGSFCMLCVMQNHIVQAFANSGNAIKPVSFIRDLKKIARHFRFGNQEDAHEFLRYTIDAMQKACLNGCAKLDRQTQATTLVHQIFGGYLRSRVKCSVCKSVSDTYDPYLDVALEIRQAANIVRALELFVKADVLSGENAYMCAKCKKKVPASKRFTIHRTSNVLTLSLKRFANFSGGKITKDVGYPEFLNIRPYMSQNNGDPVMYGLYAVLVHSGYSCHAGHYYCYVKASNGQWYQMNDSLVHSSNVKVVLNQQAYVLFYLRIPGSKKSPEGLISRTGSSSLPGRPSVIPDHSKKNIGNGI
Assay: USP36 inhibition biochemical assay
Details: read-out: USP 36 IC50; 2 nM human USP36 (81-461), 25 nM Ub-Rh110MP substrate, 30 minutes preincubation with compound, fluorescence rate over 10 minutes
Experimental: Test compounds were serially diluted in DMSO (Sigma, G7516) to obtain 10-point, 3-fold series. […] Enzyme and substrate concentrations and incubation times were optimized for the maximal signal-to-background while maintaining linear initial velocity conditions at a fixed substrate concentration below Km.
Rates were calculated by: rate=((final FLU−initial FLU)/600 seconds) where final FLU=fluorescence at time 10 minutes, initial FLU=fluorescence at time 0 minutes and 600=duration of reaction in seconds.
Data were reported as percent inhibition compared with control wells based on the following equation: % inh=100*((rate−AveLow)/(AveHigh−AveLow)) where rate=measured rate of fluorescence generated during assay, AveLow=average rate of no enzyme control (n=32), and AveHigh=average rate of DMSO control (n=32).
Data were fitted using the Levenburg Marquardt algorithm.

SMILES: O=C(Nc1snnc1C(=O)Nc1ccc(N2CCCC2)cc1)c1cncc(C(F)(F)F)c1 [Compound 1, N-(4-(pyrrolidin-1-yl)phenyl)-5-(5-(trifluoromethyl)nicotinamido)-1,2,3-thiadiazole-4-carboxamide]
- IC50: 198 nM
